Earlier results as cited in US20120142605A1, “METHODS OF TREATING PSORIASIS” (Amgen Inc., priority 2009, published 2012).

System: psoriasis patients
Details: not completely effective for all patients

etanercept
time for which it can be safely and effectively used: at least 96 weeks
